Laboratory results as given in patent US6358885B1, “Substituted phenylheterocyclic herbicides” (Mississippi State University, priority 1992, dated 2002).

Assays:
Assay in all cases: Test G preemergence/postemergence greenhouse plant response rating 0 to 100
alfalfa = format: in vivo, Medicago ativa; details: 0 to 100 scale
Procedure, shortened: (§1)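 Pre- and postemergence treatments used compound in non-phytotoxic solvent on potted greenhouse plants grown from seed, rhizome or plant part. Postemergence plants were at the 2–4 leaf stage; damage was assessed by eye versus untreated pots after 13–21 days.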

annual bluegrass = format: in vivo, Poa annua; details: 0 to 100 scale
Procedure, shortened: as §1

bermudagrass = format: in vivo, Cynodon dactylon; details: 0 to 100 scale
Procedure, shortened: as §1

broadleaf signalgrass = format: in vivo, Brachiaria plantaginea; details: 0 to 100 scale
Procedure, shortened: as §1

common purslane = format: in vivo, Portulaca oleracea; details: 0 to 100 scale
Procedure, shortened: as §1

common ragweed = format: in vivo, Ambrosia elatior; details: 0 to 100 scale
Procedure, shortened: as §1

dallisgrass = format: in vivo, Paspalum dilatatum; details: 0 to 100 scale
Procedure, shortened: as §1

goosegrass = format: in vivo, Eleusine indica; details: 0 to 100 scale
Procedure, shortened: as §1

guineagrass = format: in vivo, Panicum maximum; details: 0 to 100 scale
Procedure, shortened: as §1

itchgrass = format: in vivo, Rottboellia exaltata; details: 0 to 100 scale
Procedure, shortened: as §1

johnsongrass = format: in vivo, Sorghum halepense; details: 0 to 100 scale
Procedure, shortened: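 Visual injury scores, taken 13–21 d after spraying and judged against untreated pots; dash = not tested. Single-species greenhouse pots; test chemical dissolved in non-phytotoxic solvent. Pre: applied ≤1 d post-planting.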

large crabgrass = format: in vivo, Digitaria sanguinalis; details: 0 to 100 scale
Procedure, shortened: as §1

peanut = format: in vivo, Arachis hypoagaea; details: 0 to 100 scale
Procedure, shortened: as §1

pitted morningglory = format: in vivo, Ipomoea lacunosa; details: 0 to 100 scale
Procedure, shortened: as §1

purple nutsedge = format: in vivo, Cyperus rotundus; details: Rate 125 g/ha, 0 to 100 scale
Procedure, shortened: as §1

smooth crabgrass = format: in vivo, Digitaria ischaemum; details: 0 to 100 scale
Procedure, shortened: as §1

yellow nutsedge = format: in vivo, Cyperus esculentus; details: Rate 125 g/ha, 0 to 100 scale
Procedure, shortened: as §1

CC(C)COc1cc(-c2nn3c(c2Cl)CCCC3)c(F)cc1Cl [Compound 30]
Plant response rating, Alfalfa Var. (alfalfa; POSTEMERGENCE, Rate 125 g/ha): 0 | Plant response rating, Alfalfa Var. (alfalfa; POSTEMERGENCE, Rate 250 g/ha): 0 | Plant response rating, Alfalfa Var. (alfalfa; PREEMERGENCE, Rate 125 g/ha): 0 | Plant response rating, Alfalfa Var. (alfalfa; PREEMERGENCE, Rate 250 g/ha): 0 | Plant response rating, Ann Bluegrass (annual bluegrass; POSTEMERGENCE, Rate 125 g/ha): 0 | Plant response rating, Ann Bluegrass (annual bluegrass; POSTEMERGENCE, Rate 250 g/ha): 0 | Plant response rating, Ann Bluegrass (annual bluegrass; PREEMERGENCE, Rate 125 g/ha): 0 | Plant response rating, Ann Bluegrass (annual bluegrass; PREEMERGENCE, Rate 250 g/ha): 0 | Plant response rating, Bermudagrass (bermudagrass; POSTEMERGENCE, Rate 125 g/ha): 0 | Plant response rating, Bermudagrass (bermudagrass; POSTEMERGENCE, Rate 250 g/ha): 0 | Plant response rating, Bermudagrass (bermudagrass; PREEMERGENCE, Rate 125 g/ha): 0 | Plant response rating, Bermudagrass (bermudagrass; PREEMERGENCE, Rate 250 g/ha): 0 | Plant response rating, Brdlf Sgnlgrass (broadleaf signalgrass; POSTEMERGENCE, Rate 125 g/ha): 0 | Plant response rating, Brdlf Sgnlgrass (broadleaf signalgrass; POSTEMERGENCE, Rate 250 g/ha): 0 | Plant response rating, Brdlf Sgnlgrass (broadleaf signalgrass; PREEMERGENCE, Rate 125 g/ha): 0 | Plant response rating, Brdlf Sgnlgrass (broadleaf signalgrass; PREEMERGENCE, Rate 250 g/ha): 0 | Plant response rating, Cmn Purslane (common purslane; POSTEMERGENCE, Rate 125 g/ha): 70 | Plant response rating, Cmn Purslane (common purslane; POSTEMERGENCE, Rate 250 g/ha): 60 | Plant response rating, Cmn Purslane (common purslane; PREEMERGENCE, Rate 125 g/ha): 0 | Plant response rating, Cmn Purslane (common purslane; PREEMERGENCE, Rate 250 g/ha): 0 | Plant response rating, Cmn Ragweed (common ragweed; POSTEMERGENCE, Rate 125 g/ha): 40 | Plant response rating, Cmn Ragweed (common ragweed; POSTEMERGENCE, Rate 250 g/ha): 0 | Plant response rating, Cmn Ragweed (common ragweed; PREEMERGENCE, Rate 125 g/ha): 0 | Plant response rating, Cmn Ragweed (common ragweed; PREEMERGENCE, Rate 250 g/ha): 0 | Plant response rating, Dallisgrass (dallisgrass; POSTEMERGENCE, Rate 125 g/ha): 0 | Plant response rating, Dallisgrass (dallisgrass; POSTEMERGENCE, Rate 250 g/ha): 0 | Plant response rating, Dallisgrass (dallisgrass; PREEMERGENCE, Rate 125 g/ha): 0 | Plant response rating, Dallisgrass (dallisgrass; PREEMERGENCE, Rate 250 g/ha): 0 | Plant response rating, Goosegrass (goosegrass; POSTEMERGENCE, Rate 125 g/ha): 0 | Plant response rating, Goosegrass (goosegrass; POSTEMERGENCE, Rate 250 g/ha): 0 | Plant response rating, Goosegrass (goosegrass; PREEMERGENCE, Rate 125 g/ha): 0 | Plant response rating, Goosegrass (goosegrass; PREEMERGENCE, Rate 250 g/ha): 30 | Plant response rating, Guineagrass (guineagrass; POSTEMERGENCE, Rate 125 g/ha): 0 | Plant response rating, Guineagrass (guineagrass; POSTEMERGENCE, Rate 250 g/ha): 0 | Plant response rating, Guineagrass (guineagrass; PREEMERGENCE, Rate 125 g/ha): 0 | Plant response rating, Guineagrass (guineagrass; PREEMERGENCE, Rate 250 g/ha): 0 | Plant response rating, Itchgrass (itchgrass; POSTEMERGENCE, Rate 125 g/ha): 0 | Plant response rating, Itchgrass (itchgrass; POSTEMERGENCE, Rate 250 g/ha): 0 | Plant response rating, Itchgrass (itchgrass; PREEMERGENCE, Rate 125 g/ha): 0 | Plant response rating, Itchgrass (itchgrass; PREEMERGENCE, Rate 250 g/ha): 0 | Plant response rating, Johnsongrass (johnsongrass; POSTEMERGENCE, Rate 125 g/ha): 0 | Plant response rating, Johnsongrass (johnsongrass; POSTEMERGENCE, Rate 250 g/ha): 0 | Plant response rating, Johnsongrass (johnsongrass; PREEMERGENCE, Rate 125 g/ha): 0 | Plant response rating, Johnsongrass (johnsongrass; PREEMERGENCE, Rate 250 g/ha): 0 | Plant response rating, Large Crabgrass (large crabgrass; POSTEMERGENCE, Rate 125 g/ha): 0 | Plant response rating, Large Crabgrass (large crabgrass; POSTEMERGENCE, Rate 250 g/ha): 0 | Plant response rating, Large Crabgrass (large crabgrass; PREEMERGENCE, Rate 125 g/ha): 0 | Plant response rating, Large Crabgrass (large crabgrass; PREEMERGENCE, Rate 250 g/ha): 70 | Plant response rating, Peanuts (peanut; POSTEMERGENCE, Rate 125 g/ha): 0 | Plant response rating, Peanuts (peanut; POSTEMERGENCE, Rate 250 g/ha): 0 | Plant response rating, Peanuts (peanut; PREEMERGENCE, Rate 125 g/ha): 0 | Plant response rating, Peanuts (peanut; PREEMERGENCE, Rate 250 g/ha): 0 | Plant response rating, Pit Morninglory (pitted morningglory; POSTEMERGENCE, Rate 125 g/ha): 0 | Plant response rating, Pit Morninglory (pitted morningglory; POSTEMERGENCE, Rate 250 g/ha): 20 | Plant response rating, Pit Morninglory (pitted morningglory; PREEMERGENCE, Rate 125 g/ha): 0 | Plant response rating, Pit Morninglory (pitted morningglory; PREEMERGENCE, Rate 250 g/ha): 0 | Plant response rating, Purple Nutsedge (purple nutsedge; POSTEMERGENCE): 0 | Plant response rating, Purple Nutsedge (purple nutsedge; PREEMERGENCE): 0 | Plant response rating, Smooth Crabgras (smooth crabgrass; POSTEMERGENCE, Rate 125 g/ha): 0 | Plant response rating, Smooth Crabgras (smooth crabgrass; POSTEMERGENCE, Rate 250 g/ha): 0 | Plant response rating, Smooth Crabgras (smooth crabgrass; PREEMERGENCE, Rate 125 g/ha): 0 | Plant response rating, Smooth Crabgras (smooth crabgrass; PREEMERGENCE, Rate 250 g/ha): 0 | Plant response rating, Yellow Nutsedge (yellow nutsedge; POSTEMERGENCE): 0 | Plant response rating, Yellow Nutsedge (yellow nutsedge; PREEMERGENCE): 0
